Laboratory results as given in US12606528B2, “Methods and materials for inhibiting NF-kB activity” (University of Pittsburgh - Of the Commonwealth System of …, priority 2019, dated 2026).
Where two headings read alike, the source gives them in different places.

Key:
[1] = test system: NF-κB; assay: NF-κB assay: THP1-NF-κB-LUC cells, LPS-stimulated secreted luciferase; assay type: cell-based; details: THP1-NF-κB-LUC cells, read-out: IC50 (NF-κB assay)
Summary of the method: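 THP1-NF-κB-LUC cells (25k/well) were pretreated with compounds for 2 h, then stimulated with LPS (10 ng/mL) for 18 h. Secreted luciferase was measured and normalized to vehicle, and IC50 was fitted from the concentration series.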

[2] = test system: TNF release; assay: TNF assay: TNF release from LPS-stimulated human PBMCs (TNF ELISA); assay type: cell-based; details: PBMC, read-out: IC50 (TNF assay)
Summary of the method: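 Human PBMCs at 10k/well pretreated with compound dilutions 2 h, then stimulated with LPS (10 ng/mL) for 18 h. TNF in supernatants quantified by ELISA; IC50 for inhibition of TNF release fitted from concentration–response.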

[3] = LPS-stimulated human PBMCs, TNF ELISA
[4] = compounds 2 hours before LPS (10 ng/mL) for 18 hours, secreted luciferase
[5] = human PBMCs, compounds 2 hours before LPS (10 ng/ml) for 18 hours, supernatant TNF ELISA

| SMILES | IC50 ([1]; LPS-stimulated) | IC50 [2, 3] | IC50 [1, 4] | IC50 [2, 5] |
| --- | --- | --- | --- | --- |
| Cc1cc(O)n2nc([S+](C)[O-])c(S(=O)(=O)c3ccccc3)c2n1 (stereo not drawn) [BC19341] | > 10 µM | > 10 µM |  |  |
| CN1CCN(C(=O)c2ccc3nc(-c4ccc(F)cc4)c(-c4ccc(Cl)cc4Cl)nc3c2)CC1 [BC19398] | 0.1 to 1 µM | > 10 µM |  |  |
| CC(C)[S+]([O-])c1sc(-c2cccnc2)nc1S(=O)(=O)c1ccc(Cl)cc1 (stereo not drawn) [BC19725] | > 10 µM | > 10 µM |  |  |
| CC1Oc2cc(S(=O)(=O)Nc3ccc(Cl)cc3)c(Br)cc2N(C)C1=O (stereo not drawn) [BC19792] |  |  | 1 to 10 µM | > 10 µM |
| CCC1Oc2cc(S(=O)(=O)Nc3ccc(C)c(F)c3)c(Cl)cc2NC1=O (stereo not drawn) [BC19212] |  |  | < 0.1 µM | > 10 µM |
| CCc1ccc(NS(=O)(=O)c2cc3c(cc2Cl)NC(=O)C(CC)O3)cc1 (stereo not drawn) [BC19741] |  |  | < 0.1 µM | > 10 µM |
| COCC[S+]([O-])c1[nH]c(-c2cccc(OC)c2)nc1S(=O)(=O)c1ccc(Cl)cc1 (stereo not drawn) [BC19337] | > 10 µM | > 10 µM |  |  |
| Cc1ccc(NS(=O)(=O)c2cc(S(C)(=O)=O)cc3c2OCC(=O)N3)cc1Cl [BC19486] |  |  | < 0.1 µM | > 10 µM |
| Cc1cnc(-c2ccc3nc(-c4ccc(F)cc4)c(-c4cccs4)nc3c2)o1 [BC19249] | 1 to 10 µM | > 10 µM |  |  |
| O=C1CCOc2cc(S(=O)(=O)Nc3ccc(Cl)cc3)c(Br)cc2N1 [BC19656] | 1 to 10 µM | > 10 µM |  |  |
| CC1Oc2cc(S(=O)(=O)Nc3ccccc3)c(Cl)cc2NC1=O (stereo not drawn) [BC19206] |  |  | 1 to 10 µM | > 10 µM |
| CC1Oc2c(cc(Br)cc2S(=O)(=O)Nc2ccc(F)cc2F)N(C)C1=O (stereo not drawn) [BC19798] |  |  | < 0.1 µM | 1 to 10 µM |
| CS(=O)(=O)c1sc(-c2ccc3ccccc3c2)nc1S(=O)(=O)c1ccc(Cl)cc1 [BC19672] | 1 to 10 µM | 0.1 to 1 µM |  |  |
| CC1Oc2c(cc(Br)cc2S(=O)(=O)Nc2cccc(Cl)c2)N(C)C1=O (stereo not drawn) [BC19904] |  |  | < 0.1 µM | > 10 µM |
| CCS(=O)(=O)c1oc(-c2ccc(C)cc2)nc1S(=O)(=O)c1ccc(Cl)cc1 [BC19127] | < 0.1 µM | 1 to 10 µM |  |  |
| O=C(Nc1ccc2nc(-c3ccc(F)cc3)c(-c3ccc(F)cc3)nc2c1)OCC(F)(F)F [BC19239] | 0.1 to 1 µM | > 10 µM |  |  |
| N#Cc1ccc(NS(=O)(=O)c2cc(Br)cc3c2OCCNC3=O)cc1 [BC19615] | 0.1 to 1 µM | > 10 µM |  |  |
| O=C(O)c1cc2c(c(NS(=O)(=O)c3ccc(F)c(F)c3)c1)N1CCCC1C(=O)N2 (stereo not drawn) [BC19917] | > 10 µM | > 10 µM |  |  |
| CC1Oc2c(cc(Br)cc2S(=O)(=O)Nc2ccc(F)cc2)N(C)C1=O (stereo not drawn) [BC19911] |  |  | < 0.1 µM | > 10 µM |

| SMILES | IC50 ([1]; LPS-stimulated) | IC50 [2, 3] | IC50 [1, 4] | IC50 [2, 5] |
| --- | --- | --- | --- | --- |
| O=C(c1ccc2nc(-c3ccc(F)cc3)c(-c3ccc(F)cc3)nc2c1)N1CCN(CCOCCO)CC1 [BC19514] | 0.1 to 1 µM | 1 to 10 µM |  |  |
| CCc1cccc(NS(=O)(=O)c2cc(S(=O)(=O)CC)cc3c2OCC(=O)N3)c1 [BC19439] |  |  | < 0.1 µM | > 10 µM |
| CCC[S+]([O-])c1sc(-c2cccnc2)nc1S(=O)(=O)c1ccc(Cl)cc1 (stereo not drawn) [BC19724] | 1 to 10 µM | 1 to 10 µM |  |  |
| CC1Oc2c(cc(Br)cc2S(=O)(=O)Nc2ccccc2)N(C)C1=O (stereo not drawn) [BC19789] |  |  | < 0.1 µM | 1 to 10 µM |
| CCC1Oc2cc(S(=O)(=O)NC3CCC(O)CC3)c(Br)cc2NC1=O (stereo not drawn) [BC19372] |  |  | > 10 µM | > 10 µM |
| O=C1CCOc2cc(S(=O)(=O)Nc3ccc(F)cc3)c(Br)cc2N1 [BC19660] | > 10 µM | > 10 µM |  |  |
| CCc1ccc(NS(=O)(=O)c2cc(Cl)cc3c2OC(C)C(=O)N3)cc1 (stereo not drawn) [BC19703] |  |  | < 0.1 µM | > 10 µM |
| CS(=O)(=O)c1ccc(-c2nc3ccc(-c4ncco4)cc3nc2-c2ccc(F)cc2)s1 [BC19248] | > 10 µM | > 10 µM |  |  |
| CC1Oc2c(cc(Br)cc2S(=O)(=O)Nc2ccc(F)cc2Cl)N(C)C1=O (stereo not drawn) [BC19908] |  |  | < 0.1 µM | > 10 µM |
| CC(C)CC1Oc2cc(S(=O)(=O)Nc3ccc(F)c(F)c3)c(Br)cc2NC1=O (stereo not drawn) [BC19760] |  |  | < 0.1 µM | > 10 µM |
| O=c1[nH]ccc2cc([S+]([O-])c3ccccc3)ccc12 (stereo not drawn) [BC19454] |  |  | > 10 µM | > 10 µM |
| COc1ccc(NS(=O)(=O)c2cc(Br)cc3c2OCCC(=O)N3)cc1Cl [BC19688] | > 10 µM | > 10 µM |  |  |
| CCc1cccc(NS(=O)(=O)c2cc3c(cc2Br)N(C)C(=O)C(CC)O3)c1 (stereo not drawn) [BC19916] |  |  | 1 to 10 µM | > 10 µM |
| CCc1ccc(-c2nc3cc(C(=O)N4CCN(C)CC4)ccc3nc2-c2ccc(F)cc2)cc1 [BC19319] | 1 to 10 µM | > 10 µM |  |  |
| O=C(NCCO)c1ccc2nc(-c3ccc(OC(F)(F)F)cc3)c(-c3ccc(OC(F)(F)F)cc3)nc2c1 [BC19453] | > 10 µM | > 10 µM |  |  |
| Cc1cnc(-c2ccc3nc(C(F)(F)F)c(-c4ccc(F)cc4)nc3c2)o1 [BC19114] | > 10 µM | > 10 µM |  |  |
| CCC1Oc2cc(S(=O)(=O)Nc3ccc(C(F)(F)F)cc3Cl)c(Br)cc2NC1=O (stereo not drawn) [BC19371] |  |  | 1 to 10 µM | > 10 µM |
| CC(C)S(=O)(=O)[C@H]1CN(C(=O)c2ccccc2)C[C@@H]1S(=O)(=O)c1ccc(F)cc1 (racemic) [BC19683] | > 10 µM | 1 to 10 µM |  |  |
| COc1ccc(NS(=O)(=O)c2cc(S(C)(=O)=O)cc3c2OCC(=O)N3)cc1 [BC19485] |  |  | < 0.1 µM | > 10 µM |

| SMILES | IC50 ([1]; LPS-stimulated) | IC50 [2, 3] | IC50 [1, 4] | IC50 [2, 5] |
| --- | --- | --- | --- | --- |
| CCC[S+]([O-])c1sc(-c2ccccc2F)nc1S(=O)(=O)c1ccc(Cl)cc1 (stereo not drawn) [BC19627] | 1 to 10 µM | > 10 µM |  |  |
| CCCS(=O)(=O)c1oc(-c2ccccc2)nc1S(=O)(=O)c1ccc(Cl)cc1 [BC19521] | < 0.1 µM | 0.1 to 1 µM |  |  |
| CCS(=O)(=O)c1cc2c(c(S(=O)(=O)Nc3ccc(C)c(Cl)c3)c1)OCC(=O)N2 [BC19544] |  |  | < 0.1 µM | > 10 µM |
| CC1Nc2cc(S(=O)(=O)N3CCCC3)ccc2NC1=O (stereo not drawn) [BC19235] | > 10 µM | > 10 µM |  |  |
| O=S(=O)(CC1CC1)c1oc(-c2ccccc2)nc1S(=O)(=O)c1cccc(F)c1 [BC19271] | 0.1 to 1 µM | < 0.1 µM |  |  |
| CC(C)CC1Oc2c(cc(Br)cc2S(=O)(=O)Nc2cccc(Cl)c2)NC1=O (stereo not drawn) [BC19775] |  |  | < 0.1 µM | > 10 µM |
| COCCS(=O)(=O)c1oc(-c2ccccc2)nc1S(=O)(=O)c1ccc(F)c(F)c1 [BC19276] | 0.1 to 1 µM | < 0.1 µM |  |  |
| CC(C)Sc1snc(-c2ccc(F)cc2)c1S(=O)(=O)c1ccc(Cl)cc1 [BC19726] | > 10 µM | > 10 µM |  |  |
| CC(C)CS(=O)(=O)c1sc(-c2ccccc2)nc1S(=O)(=O)c1ccc(Cl)cc1 [BC19473] | > 10 µM | > 10 µM |  |  |
| CCC1Oc2c(cc(Br)cc2S(=O)(=O)Nc2ccccc2)N(C)C1=O (stereo not drawn) [BC19927] |  |  | < 0.1 µM | 1 to 10 µM |
| COCCS(=O)(=O)c1oc(-c2ccc(F)cc2)nc1S(=O)(=O)c1ccc(Cl)cc1 [BC19333] | < 0.1 µM | < 0.1 µM |  |  |
| O=C1COc2cc(S(=O)(=O)NCc3ccc(F)cc3F)c(Br)cc2N1 [BC19393] |  |  | > 10 µM | > 10 µM |
| CC(C)[S+]([O-])c1sc(-c2ccc(Cl)cc2)nc1S(=O)(=O)c1ccc(F)cc1 (stereo not drawn) [BC19537] | > 10 µM | > 10 µM |  |  |
| C[S+]([O-])c1sc(C2CCCCC2)nc1S(=O)(=O)c1ccc(Cl)cc1 (stereo not drawn) [BC19640] | > 10 µM | > 10 µM |  |  |
| CN1CCN(C(=O)c2ccc3nc(-c4ccc(F)cc4)c(-c4ccc(F)cc4)nc3n2)CC1 [BC19618] | 0.1 to 1 µM | > 10 µM |  |  |
| CS(=O)(=O)c1cc2c(c(S(=O)(=O)Nc3ccc(Cl)cc3)c1)OCC(=O)N2 [BC19483] |  |  | < 0.1 µM | > 10 µM |
| CCC1Oc2cc(S(=O)(=O)Nc3cccc(Cl)c3)c(Cl)cc2NC1=O (stereo not drawn) [BC19751] |  |  | 0.1 to 1 µM | > 10 µM |
| O=C1COc2c(cc(Br)cc2S(=O)(=O)NC2CCC(O)CC2)N1 (stereo not drawn) [BC19381] |  |  | > 10 µM | > 10 µM |
| COCC[S+]([O-])c1sc(-c2ccc(Cl)cc2)nc1S(=O)(=O)c1ccc(Cl)cc1 (stereo not drawn) [BC19479] | > 10 µM | > 10 µM |  |  |
